# Assay results from ChEMBL document CHEMBL5252609, “Design, synthesis, and antitumor evaluation of morpholine substituted bisnaphthalimides as DNA targeting agents” (Bioorg Med Chem Lett, 2023).
# The source made the active and inactive calls. The calls are words filed in the database; no cut-off is given here.
# Key:
# [1] = Toxicity in nude mouse xenografted with human MGC-803 cells assessed as effect on body weight at 4 mg/kg, ip administrated every other day measured at 9 to 14 days; assay type: organism-based; details: in vivo, time 9-14 day
# MGC-803 [2] = assay: Toxicity in nude mouse xenografted with human MGC-803 cells assessed as morphological changes in heart at 8 mg/kg, ip administrated every other day for 21 days; assay type: functional, organism-based; details: time 21.0 day
# MGC-803 [3] = assay: Toxicity in nude mouse xenografted with human MGC-803 cells assessed as morphological changes in liver at 8 mg/kg, ip administrated every other day for 21 days; assay type: functional, organism-based; details: time 21.0 day
# MGC-803 [4] = assay: Toxicity in nude mouse xenografted with human MGC-803 cells assessed as morphological changes in spleen at 8 mg/kg, ip administrated every other day for 21 days; assay type: functional, organism-based; details: time 21.0 day
# MGC-803 [5] = assay: Toxicity in nude mouse xenografted with human MGC-803 cells assessed as morphological changes in lung at 8 mg/kg, ip administrated every other day for 21 days; assay type: functional, organism-based; details: time 21.0 day
# MGC-803 [6] = assay: Toxicity in nude mouse xenografted with human MGC-803 cells assessed as morphological changes in kidney at 8 mg/kg, ip administrated every other day for 21 days; assay type: functional, organism-based; details: time 21.0 day
# [7] = molecular target: T1, DNA topoisomerase 1 (Homo sapiens) (UniProt P11387); assay: Inhibition of human DNA topoisomerase 1 assessed as reduction in pBR322 DNA relaxation at 10 to 20 uM by gel electrophoresis method; details: dose 10-20 µM
# T1 sequence (whole entry): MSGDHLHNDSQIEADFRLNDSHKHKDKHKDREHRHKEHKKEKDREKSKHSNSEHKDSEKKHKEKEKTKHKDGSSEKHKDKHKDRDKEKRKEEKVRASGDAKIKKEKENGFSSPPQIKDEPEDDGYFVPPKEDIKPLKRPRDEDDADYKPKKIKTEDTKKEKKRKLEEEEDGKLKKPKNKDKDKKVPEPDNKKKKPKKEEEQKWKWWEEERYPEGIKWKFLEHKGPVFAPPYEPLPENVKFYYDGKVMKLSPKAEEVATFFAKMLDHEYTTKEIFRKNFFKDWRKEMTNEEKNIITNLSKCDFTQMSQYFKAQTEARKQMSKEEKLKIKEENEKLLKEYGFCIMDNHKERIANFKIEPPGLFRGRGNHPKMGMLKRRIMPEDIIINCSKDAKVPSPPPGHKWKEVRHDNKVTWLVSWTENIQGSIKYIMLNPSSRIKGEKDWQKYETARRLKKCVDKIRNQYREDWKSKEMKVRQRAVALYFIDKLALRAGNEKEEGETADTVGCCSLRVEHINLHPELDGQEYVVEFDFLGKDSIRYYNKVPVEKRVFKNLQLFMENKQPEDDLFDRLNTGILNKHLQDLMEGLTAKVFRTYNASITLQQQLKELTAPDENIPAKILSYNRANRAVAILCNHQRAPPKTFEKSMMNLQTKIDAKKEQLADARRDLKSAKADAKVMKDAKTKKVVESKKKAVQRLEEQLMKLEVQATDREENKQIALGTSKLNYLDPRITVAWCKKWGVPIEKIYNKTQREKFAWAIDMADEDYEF
# CNE-2 [8] = assay: Induction of cell cycle arrest in human CNE-2 cells assessed as accumulation of cells at S phase measured after 48 hrs by flow cytometry analysis; assay type: functional, cell-based; details: dose 0.5-2 µM
# CNE-2 [9] = assay: Induction of cell cycle arrest in human CNE-2 cells assessed as accumulation of cells at S phase at 0.5 uM measured after 48 hrs by flow cytometry analysis (Rvb= 19.83%); assay type: functional
# CNE-2 [10] = assay: Induction of cell cycle arrest in human CNE-2 cells assessed as accumulation of cells at S phase at 2 uM measured after 48 hrs by flow cytometry analysis (Rvb= 19.83%); assay type: functional
# CNE-2 [11] = assay: Induction of apoptosis in human CNE-2 cells assessed as necrotic cells at 0.5 uM measured after 24 hrs by annexin-V-FITC and PI staining based flow cytometry analysis (reference value: 0.959%); assay type: functional
# CNE-2 [12] = assay: Induction of apoptosis in human CNE-2 cells assessed as late apoptotic cells at 1 uM measured after 24 hrs by annexin-V-FITC and PI staining based flow cytometry analysis (reference value: 3.79%); assay type: functional
# CNE-2 [13] = assay: Induction of apoptosis in human CNE-2 cells assessed as viable cells at 2 uM measured after 24 hrs by annexin-V-FITC and PI staining based flow cytometry analysis (reference value: 94.8%); assay type: functional; details: read-out: Activity
# [14] = Toxicity in nude mouse xenografted with human MGC-803 cells assessed as effect on body weight at 4 mg/kg, ip administrated every other day for 21 days; assay type: organism-based; details: in vivo, 504 h, time 21 day
Structure (SMILES),Activity [1],Activity (MGC-803 [2]),Activity (MGC-803 [3]),Activity (MGC-803 [4]),Activity (MGC-803 [5]),Activity (MGC-803 [6]),inhibition [7],Activity (CNE-2 [8]),Activity (CNE-2 [9]),Activity (CNE-2 [10]),Activity (CNE-2 [11]),Activity (CNE-2 [12]),viability at 2 µM (CNE-2 [13]),Activity [14]
O=C1c2cccc3c(N4CCOCC4)c([N+](=O)[O-])cc(c23)C(=O)N1CCNCCN1C(=O)c2cccc3c(N4CCOCC4)c([N+](=O)[O-])cc(c23)C1=O,Non-Toxic,Not toxic,Toxic,Not toxic,Not toxic,Not toxic,Active,Dose-Dependent Effect,31.78%,49.01%,7.04%,7.06%,70.1%,–
CN(C)CCN1C(=O)c2cccc3c(N4CCOCC4)c([N+](=O)[O-])cc(c23)C1=O,–,–,Toxic,–,–,–,Active,–,20.05%,35.62%,2.12%,8.53%,71.9%,Toxic
